Laboratory results taken from article PMC11864979, “First-in-class ultralong-target-residence-time p38α inhibitors as a mitosis-targeted therapy for colorectal cancer” (Nature Cancer, 2025).
Where two headings read alike, the source gives them in different places.

How the values were obtained:
Assay in all cases: selectivity profiling in a panel of 340 wild-type kinases (Reaction Biology Europe)
Type in all cases: binding
[1] = biological target: T1, 340 wild-type kinases (Homo sapiens, UniProt P11802)
T1 construct: purchased Reaction Biology Europe
T1 sequence (P11802 whole entry): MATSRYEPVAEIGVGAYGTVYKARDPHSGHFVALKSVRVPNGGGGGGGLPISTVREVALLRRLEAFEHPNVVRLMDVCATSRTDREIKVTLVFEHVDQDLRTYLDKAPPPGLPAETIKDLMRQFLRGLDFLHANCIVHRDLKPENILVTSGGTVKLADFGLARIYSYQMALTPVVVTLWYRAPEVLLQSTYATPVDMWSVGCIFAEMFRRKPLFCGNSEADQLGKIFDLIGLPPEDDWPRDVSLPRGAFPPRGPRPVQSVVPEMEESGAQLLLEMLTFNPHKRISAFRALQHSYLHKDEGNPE

[2] = biological target: T2, 340 wild-type kinases (Homo sapiens, UniProt P30291)
T2 construct: purchased Reaction Biology Europe
T2 sequence (P30291 whole entry): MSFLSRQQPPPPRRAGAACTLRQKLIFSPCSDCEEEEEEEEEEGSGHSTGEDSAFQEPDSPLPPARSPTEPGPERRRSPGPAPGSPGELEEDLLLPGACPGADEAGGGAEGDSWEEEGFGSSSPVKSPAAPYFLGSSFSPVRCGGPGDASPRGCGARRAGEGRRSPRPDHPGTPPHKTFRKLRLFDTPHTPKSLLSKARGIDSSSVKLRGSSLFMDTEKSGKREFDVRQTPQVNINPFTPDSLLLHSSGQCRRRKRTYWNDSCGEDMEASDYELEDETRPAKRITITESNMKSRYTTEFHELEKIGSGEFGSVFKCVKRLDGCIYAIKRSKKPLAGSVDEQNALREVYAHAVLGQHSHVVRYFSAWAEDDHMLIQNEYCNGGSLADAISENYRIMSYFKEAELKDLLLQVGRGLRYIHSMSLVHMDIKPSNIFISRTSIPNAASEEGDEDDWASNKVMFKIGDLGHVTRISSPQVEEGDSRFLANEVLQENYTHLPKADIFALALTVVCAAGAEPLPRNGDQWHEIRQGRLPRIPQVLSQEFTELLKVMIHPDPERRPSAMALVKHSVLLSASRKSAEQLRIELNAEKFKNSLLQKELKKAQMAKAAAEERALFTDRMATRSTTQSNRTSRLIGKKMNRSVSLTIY

[3] = biological target: T3, 340 wild-type kinases (Homo sapiens, UniProt P41279)
T3 construct: purchased Reaction Biology Europe
T3 sequence (P41279 whole entry): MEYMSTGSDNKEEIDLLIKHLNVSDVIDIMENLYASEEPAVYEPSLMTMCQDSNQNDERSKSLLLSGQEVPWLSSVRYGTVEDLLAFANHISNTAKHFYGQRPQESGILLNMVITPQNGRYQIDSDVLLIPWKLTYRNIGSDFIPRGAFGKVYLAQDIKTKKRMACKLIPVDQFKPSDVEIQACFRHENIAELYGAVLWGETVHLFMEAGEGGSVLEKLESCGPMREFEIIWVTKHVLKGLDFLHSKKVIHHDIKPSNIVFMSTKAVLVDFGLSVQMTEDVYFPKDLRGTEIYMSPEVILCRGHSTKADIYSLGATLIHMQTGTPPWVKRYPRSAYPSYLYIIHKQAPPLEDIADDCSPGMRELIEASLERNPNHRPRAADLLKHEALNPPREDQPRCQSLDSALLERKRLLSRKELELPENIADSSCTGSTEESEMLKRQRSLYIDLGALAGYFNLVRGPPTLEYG

[4] = biological target: T4, 340 wild-type kinases (Homo sapiens, UniProt P51957)
T4 construct: purchased Reaction Biology Europe
T4 sequence (P51957 whole entry): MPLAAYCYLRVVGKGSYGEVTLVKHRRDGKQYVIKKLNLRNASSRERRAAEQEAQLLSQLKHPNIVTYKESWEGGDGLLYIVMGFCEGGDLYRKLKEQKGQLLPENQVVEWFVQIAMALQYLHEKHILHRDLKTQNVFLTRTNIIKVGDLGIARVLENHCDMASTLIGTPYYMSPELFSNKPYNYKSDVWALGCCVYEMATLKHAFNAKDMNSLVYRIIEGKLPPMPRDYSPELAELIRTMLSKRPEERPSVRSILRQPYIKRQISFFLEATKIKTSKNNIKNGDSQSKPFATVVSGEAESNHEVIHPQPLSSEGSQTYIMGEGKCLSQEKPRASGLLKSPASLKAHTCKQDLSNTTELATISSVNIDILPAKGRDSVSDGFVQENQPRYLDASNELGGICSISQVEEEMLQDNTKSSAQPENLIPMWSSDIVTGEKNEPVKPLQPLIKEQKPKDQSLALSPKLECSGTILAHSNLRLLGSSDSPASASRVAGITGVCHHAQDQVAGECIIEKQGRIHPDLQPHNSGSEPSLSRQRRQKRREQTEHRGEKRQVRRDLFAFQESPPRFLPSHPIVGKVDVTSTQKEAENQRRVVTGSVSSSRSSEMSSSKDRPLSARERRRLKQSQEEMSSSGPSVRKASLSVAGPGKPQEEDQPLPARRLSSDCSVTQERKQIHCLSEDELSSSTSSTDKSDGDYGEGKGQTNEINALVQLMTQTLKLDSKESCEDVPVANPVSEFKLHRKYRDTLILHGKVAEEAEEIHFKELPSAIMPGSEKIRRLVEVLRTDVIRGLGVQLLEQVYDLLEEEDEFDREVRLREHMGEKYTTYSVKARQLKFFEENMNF

[5] = biological target: T5, 340 wild-type kinases (Homo sapiens, UniProt P78362)
T5 construct: purchased Reaction Biology Europe
T5 sequence (P78362 whole entry): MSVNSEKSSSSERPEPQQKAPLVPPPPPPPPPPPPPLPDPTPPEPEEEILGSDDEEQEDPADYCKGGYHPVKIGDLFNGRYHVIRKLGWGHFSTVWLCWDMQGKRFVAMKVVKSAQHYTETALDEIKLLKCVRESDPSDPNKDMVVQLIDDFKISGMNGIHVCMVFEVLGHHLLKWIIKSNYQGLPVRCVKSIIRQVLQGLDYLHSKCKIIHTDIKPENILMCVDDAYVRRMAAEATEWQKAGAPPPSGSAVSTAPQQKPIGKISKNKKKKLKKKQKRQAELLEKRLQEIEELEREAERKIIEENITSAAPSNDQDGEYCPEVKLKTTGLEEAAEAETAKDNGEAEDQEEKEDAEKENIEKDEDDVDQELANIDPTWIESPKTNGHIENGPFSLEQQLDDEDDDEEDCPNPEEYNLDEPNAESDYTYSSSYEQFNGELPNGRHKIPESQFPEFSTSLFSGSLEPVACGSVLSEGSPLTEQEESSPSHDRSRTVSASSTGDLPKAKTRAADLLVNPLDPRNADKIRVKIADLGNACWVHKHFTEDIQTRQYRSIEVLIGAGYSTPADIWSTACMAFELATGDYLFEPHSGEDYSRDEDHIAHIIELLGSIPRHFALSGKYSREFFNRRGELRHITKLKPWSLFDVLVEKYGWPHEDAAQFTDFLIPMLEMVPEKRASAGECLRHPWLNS

[6] = biological target: T6, 340 wild-type kinases (Homo sapiens, UniProt Q13470)
T6 construct: purchased Reaction Biology Europe
T6 sequence (Q13470 1-666): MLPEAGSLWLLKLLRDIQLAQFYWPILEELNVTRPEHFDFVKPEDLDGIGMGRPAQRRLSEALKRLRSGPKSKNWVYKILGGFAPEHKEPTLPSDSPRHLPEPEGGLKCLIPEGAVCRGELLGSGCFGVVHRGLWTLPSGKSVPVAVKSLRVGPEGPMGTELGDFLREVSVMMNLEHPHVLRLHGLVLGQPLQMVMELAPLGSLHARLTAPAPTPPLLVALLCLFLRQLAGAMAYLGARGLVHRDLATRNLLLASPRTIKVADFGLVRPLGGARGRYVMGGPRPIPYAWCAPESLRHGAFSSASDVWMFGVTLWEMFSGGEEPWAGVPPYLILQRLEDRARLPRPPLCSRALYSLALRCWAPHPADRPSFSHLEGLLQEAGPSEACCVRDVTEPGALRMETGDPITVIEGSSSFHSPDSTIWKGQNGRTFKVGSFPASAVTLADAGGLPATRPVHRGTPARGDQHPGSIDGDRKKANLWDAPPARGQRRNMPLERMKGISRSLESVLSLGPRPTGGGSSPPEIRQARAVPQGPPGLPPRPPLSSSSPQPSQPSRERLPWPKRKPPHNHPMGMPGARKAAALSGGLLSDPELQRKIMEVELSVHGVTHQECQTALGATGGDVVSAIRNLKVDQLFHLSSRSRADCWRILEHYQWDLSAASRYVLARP

[7] = biological target: T7, 340 wild-type kinases (Homo sapiens, UniProt Q15759)
T7 construct: purchased Reaction Biology Europe

[8] = biological target: T8, 340 wild-type kinases (Homo sapiens, UniProt Q16288)
T8 construct: purchased Reaction Biology Europe
T8 sequence (Q16288 32-839): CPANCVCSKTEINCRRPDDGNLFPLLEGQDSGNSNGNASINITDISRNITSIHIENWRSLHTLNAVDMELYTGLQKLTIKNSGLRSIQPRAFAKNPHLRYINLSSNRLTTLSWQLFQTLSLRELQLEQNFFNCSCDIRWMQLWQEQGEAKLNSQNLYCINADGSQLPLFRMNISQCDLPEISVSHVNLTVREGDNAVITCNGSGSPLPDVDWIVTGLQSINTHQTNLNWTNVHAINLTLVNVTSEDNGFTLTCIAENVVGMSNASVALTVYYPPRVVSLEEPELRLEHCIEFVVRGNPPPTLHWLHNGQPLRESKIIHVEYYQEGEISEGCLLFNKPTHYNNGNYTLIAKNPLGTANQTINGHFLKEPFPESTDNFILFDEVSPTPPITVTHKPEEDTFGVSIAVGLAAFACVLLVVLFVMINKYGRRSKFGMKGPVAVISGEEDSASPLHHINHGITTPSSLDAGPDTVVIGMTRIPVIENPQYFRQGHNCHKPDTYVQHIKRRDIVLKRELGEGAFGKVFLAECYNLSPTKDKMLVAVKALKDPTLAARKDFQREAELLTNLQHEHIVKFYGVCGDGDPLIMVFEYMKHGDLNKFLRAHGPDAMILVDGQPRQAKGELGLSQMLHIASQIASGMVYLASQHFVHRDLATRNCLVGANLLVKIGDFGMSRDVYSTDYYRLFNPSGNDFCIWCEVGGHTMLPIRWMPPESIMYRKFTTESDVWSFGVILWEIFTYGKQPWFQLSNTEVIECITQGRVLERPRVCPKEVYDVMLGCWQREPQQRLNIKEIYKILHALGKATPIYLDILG

[9] = biological target: T9, 340 wild-type kinases (Homo sapiens, UniProt Q8TD08)
T9 construct: purchased Reaction Biology Europe
T9 sequence (Q8TD08 1-544): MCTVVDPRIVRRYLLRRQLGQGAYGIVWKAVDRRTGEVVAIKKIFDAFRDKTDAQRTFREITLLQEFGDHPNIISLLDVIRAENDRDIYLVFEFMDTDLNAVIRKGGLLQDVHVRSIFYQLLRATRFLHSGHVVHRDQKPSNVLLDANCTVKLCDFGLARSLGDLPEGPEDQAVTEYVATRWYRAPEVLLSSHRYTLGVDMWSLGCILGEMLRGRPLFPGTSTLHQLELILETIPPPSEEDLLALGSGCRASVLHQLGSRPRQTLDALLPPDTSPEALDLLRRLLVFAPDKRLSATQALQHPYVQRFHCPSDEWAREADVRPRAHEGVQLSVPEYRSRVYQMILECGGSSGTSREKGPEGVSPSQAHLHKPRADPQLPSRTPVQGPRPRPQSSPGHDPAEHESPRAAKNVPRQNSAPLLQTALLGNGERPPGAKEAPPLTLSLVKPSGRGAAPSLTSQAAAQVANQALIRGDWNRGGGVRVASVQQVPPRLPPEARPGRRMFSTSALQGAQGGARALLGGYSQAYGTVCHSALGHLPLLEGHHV

[10] = biological target: T10, 340 wild-type kinases (Homo sapiens, UniProt Q9UK32)
T10 construct: purchased Reaction Biology Europe
T10 sequence (Q9UK32 whole entry): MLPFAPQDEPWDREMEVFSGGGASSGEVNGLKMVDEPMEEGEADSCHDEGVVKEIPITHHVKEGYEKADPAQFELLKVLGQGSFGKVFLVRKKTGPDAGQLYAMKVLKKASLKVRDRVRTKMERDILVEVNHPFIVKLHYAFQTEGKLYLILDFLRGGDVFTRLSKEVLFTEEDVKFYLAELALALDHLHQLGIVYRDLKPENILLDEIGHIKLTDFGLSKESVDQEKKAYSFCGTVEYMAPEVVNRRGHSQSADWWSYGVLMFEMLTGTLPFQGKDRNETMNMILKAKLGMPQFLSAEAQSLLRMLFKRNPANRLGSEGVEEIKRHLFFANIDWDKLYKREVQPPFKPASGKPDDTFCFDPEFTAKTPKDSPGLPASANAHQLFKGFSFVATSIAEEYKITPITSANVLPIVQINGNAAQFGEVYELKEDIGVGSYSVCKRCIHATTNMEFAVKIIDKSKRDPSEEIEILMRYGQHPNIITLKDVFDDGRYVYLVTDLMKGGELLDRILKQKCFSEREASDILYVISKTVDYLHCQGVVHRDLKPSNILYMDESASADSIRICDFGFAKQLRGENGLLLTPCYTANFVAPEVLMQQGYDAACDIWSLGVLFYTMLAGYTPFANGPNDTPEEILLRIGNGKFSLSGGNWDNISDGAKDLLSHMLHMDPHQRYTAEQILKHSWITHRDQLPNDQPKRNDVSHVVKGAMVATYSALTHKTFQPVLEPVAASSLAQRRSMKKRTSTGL

[11] = biological target: T11, 340 wild-type kinases (Homo sapiens, UniProt Q9UQM7)
T11 construct: purchased Reaction Biology Europe
T11 sequence (Q9UQM7 whole entry): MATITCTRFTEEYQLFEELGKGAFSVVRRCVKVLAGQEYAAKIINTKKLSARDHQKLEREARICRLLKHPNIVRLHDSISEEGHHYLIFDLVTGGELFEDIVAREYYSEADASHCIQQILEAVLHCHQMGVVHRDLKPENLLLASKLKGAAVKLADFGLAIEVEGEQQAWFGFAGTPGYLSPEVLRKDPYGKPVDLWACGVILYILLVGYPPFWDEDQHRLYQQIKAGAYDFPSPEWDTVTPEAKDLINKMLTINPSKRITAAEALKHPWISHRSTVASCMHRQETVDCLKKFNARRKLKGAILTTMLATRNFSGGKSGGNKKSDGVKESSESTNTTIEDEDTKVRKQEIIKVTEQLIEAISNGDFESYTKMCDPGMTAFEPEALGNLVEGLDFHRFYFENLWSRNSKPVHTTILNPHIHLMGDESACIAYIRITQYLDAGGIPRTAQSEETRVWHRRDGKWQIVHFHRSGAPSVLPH

[12] = biological target: T12, 340 wild-type kinases (Homo sapiens, UniProt Q9Y3S1)
T12 construct: purchased Reaction Biology Europe

CNC(=O)c1ccc2c(c1)C(=O)c1ccc(Nc3ccc(F)c(NC(=O)C4CC4)c3)cc1CC2 [Compound 2015]
remaining activity at 0.2 µM ([1]; 0.2 µM 2015, read-out: CDK4/CycD1 residual activity): 117% | remaining activity at 0.2 µM ([1]; 0.2 µM 2015, read-out: CDK4/CycD2 residual activity): 109% | remaining activity at 0.2 µM ([1]; 0.2 µM 2015, read-out: CDK4/CycD3 residual activity): 70.3% | remaining activity at 1 µM ([1]; 1 µM 2015, read-out: CDK4/CycD1 residual activity): 98.4% | remaining activity at 1 µM ([1]; 1 µM 2015, read-out: CDK4/CycD2 residual activity): 103% | remaining activity at 1 µM ([1]; 1 µM 2015, read-out: CDK4/CycD3 residual activity): 81.7% | remaining activity at 0.2 µM ([1]; CDK4/CycD1, 0.2 µM, read-out: residual activity): 117% | remaining activity at 0.2 µM ([1]; CDK4/CycD2, 0.2 µM, read-out: residual activity): 109% | remaining activity at 1 µM ([1]; CDK4/CycD2, 1 µM, read-out: residual activity): 103% | remaining activity at 0.2 µM ([1]; CDK4/CycD3, 0.2 µM, read-out: residual activity): 70.3% | remaining activity at 1 µM ([1]; CDK4/CycD3, 1 µM, read-out: residual activity): 81.7% | remaining activity at 0.2 µM ([2]; 0.2 µM 2015, read-out: WEE1 residual activity): 91.7% | remaining activity at 1 µM ([2]; 1 µM 2015, read-out: WEE1 residual activity): 83.3% | remaining activity at 0.2 µM ([2]; WEE1, 0.2 µM, read-out: residual activity): 91.7% | remaining activity at 1 µM ([2]; WEE1, 1 µM, read-out: residual activity): 83.3% | remaining activity at 0.2 µM ([3]; 0.2 µM 2015, read-out: COT residual activity): 98.6% | remaining activity at 1 µM ([3]; 1 µM 2015, read-out: COT residual activity): 97.4% | remaining activity at 0.2 µM ([3]; COT, 0.2 µM, read-out: residual activity): 98.6% | remaining activity at 1 µM ([3]; COT, 1 µM, read-out: residual activity): 97.4% | remaining activity at 0.2 µM ([4]; 0.2 µM 2015, read-out: NEK4 residual activity): 105% | remaining activity at 1 µM ([4]; 1 µM 2015, read-out: NEK4 residual activity): 101% | remaining activity at 0.2 µM ([4]; NEK4, 0.2 µM, read-out: residual activity): 105% | remaining activity at 1 µM ([4]; NEK4, 1 µM, read-out: residual activity): 101% | remaining activity at 0.2 µM ([5]; 0.2 µM 2015, read-out: SRPK2 residual activity): 89.5% | remaining activity at 1 µM ([5]; 1 µM 2015, read-out: SRPK2 residual activity): 91.2% | remaining activity at 0.2 µM ([5]; SRPK2, 0.2 µM, read-out: residual activity): 89.5% | remaining activity at 1 µM ([5]; SRPK2, 1 µM, read-out: residual activity): 91.2% | remaining activity at 0.2 µM ([6]; 0.2 µM 2015, read-out: TNK1 residual activity): 92.8% | remaining activity at 1 µM ([6]; 1 µM 2015, read-out: TNK1 residual activity): 85.3% | remaining activity at 0.2 µM ([6]; TNK1, 0.2 µM, read-out: residual activity): 92.8% | remaining activity at 1 µM ([6]; TNK1, 1 µM, read-out: residual activity): 85.3% | remaining activity at 0.2 µM ([7]; 0.2 µM 2015, read-out: p38beta residual activity): 1.85% | remaining activity at 1 µM ([7]; 1 µM 2015, read-out: p38beta residual activity): 1.94% | remaining activity at 0.2 µM ([7]; p38beta, 0.2 µM, read-out: residual activity): 1.85% | remaining activity at 1 µM ([7]; p38beta, 1 µM, read-out: residual activity): 1.94% | remaining activity at 0.2 µM ([8]; 0.2 µM 2015, read-out: TRKC residual activity): 104% | remaining activity at 1 µM ([8]; 1 µM 2015, read-out: TRKC residual activity): 94.3% | remaining activity at 0.2 µM ([8]; TRKC, 0.2 µM, read-out: residual activity): 104% | remaining activity at 1 µM ([8]; TRKC, 1 µM, read-out: residual activity): 94.3% | remaining activity at 0.2 µM ([9]; 0.2 µM 2015, read-out: ERK7 residual activity): 93% | remaining activity at 1 µM ([9]; 1 µM 2015, read-out: ERK7 residual activity): 82.2% | remaining activity at 0.2 µM ([9]; ERK7, 0.2 µM, read-out: residual activity): 93% | remaining activity at 1 µM ([9]; ERK7, 1 µM, read-out: residual activity): 82.2% | remaining activity at 0.2 µM ([10]; 0.2 µM 2015, read-out: RPS6KA6 residual activity): 89.7% | remaining activity at 1 µM ([10]; 1 µM 2015, read-out: RPS6KA6 residual activity): 81.3% | remaining activity at 0.2 µM ([10]; RPS6KA6, 0.2 µM, read-out: residual activity): 89.7% | remaining activity at 1 µM ([10]; RPS6KA6, 1 µM, read-out: residual activity): 81.3% | remaining activity at 0.2 µM ([11]; 0.2 µM 2015, read-out: CAMK2A residual activity): 102% | remaining activity at 1 µM ([11]; 1 µM 2015, read-out: CAMK2A residual activity): 96.4% | remaining activity at 1 µM ([11]; CAMK2A, 1 µM, read-out: residual activity): 96.4% | remaining activity at 0.2 µM ([12]; 0.2 µM 2015, read-out: WNK2 residual activity): 107% | remaining activity at 1 µM ([12]; 1 µM 2015, read-out: WNK2 residual activity): 111% | remaining activity at 0.2 µM ([12]; WNK2, 0.2 µM, read-out: residual activity): 107% | remaining activity at 1 µM ([12]; WNK2, 1 µM, read-out: residual activity): 111%
